Laboratory results published in the NIST ThermoML archive (doi:10.1021/je100581m).

Assay: xn = mol fraction of the nth substance listed
Conditions: Liquid, Vibrating tube method

C=CC(C)(O)CCC=C(C)C (stereo not given) [3,7-dimethyl-1,6-octadien-3-ol] + CC(C)O
mass density [kg/m3]
Conditions	x2 = 0	x2 = 0.1031	x2 = 0.2049	x2 = 0.3054	x2 = 0.4056	x2 = 0.5022	x2 = 0.605	x2 = 0.7008	x2 = 0.7981	x2 = 0.9092
283.15 K, 100 kPa	869.5	866.3	862.7	–	854.1	848.8	842.3	834.6	–	809.3
283.15 K, 5000 kPa	872.6	869.5	–	861.9	857.4	852.2	845.7	–	828.2	813.1
283.15 K, 10000 kPa	875.7	–	869	864.9	860.5	855.3	–	841.4	831.6	816.6
283.15 K, 15000 kPa	–	875.5	872.1	868.1	863.7	–	852.2	844.9	835.1	820.4
283.15 K, 20000 kPa	881.5	878.5	875	870.9	–	861.6	855.3	848	838.4	–
283.18 K, 100 kPa	–	–	–	858.7	–	–	–	–	824.5	–
283.18 K, 5000 kPa	–	–	865.9	–	–	–	–	838.1	–	–
283.18 K, 10000 kPa	–	872.5	–	–	–	–	848.9	–	–	–
283.18 K, 15000 kPa	878.7	–	–	–	–	858.6	–	–	–	–
283.18 K, 20000 kPa	–	–	–	–	866.7	–	–	–	–	823.7
298.15 K, 100 kPa	857.3	854.1	850.5	846.3	841.7	836.4	829.7	821.9	812	796.8
298.15 K, 5000 kPa	860.6	857.4	853.9	849.8	845.2	839.9	833.3	825.6	815.9	800.9
298.15 K, 10000 kPa	863.9	860.8	857.3	853.2	848.7	843.5	837	829.4	819.7	804.9
298.15 K, 15000 kPa	867	864	860.5	856.5	852	846.9	840.4	832.9	823.4	808.8
298.15 K, 20000 kPa	870	867	863.6	859.6	855.2	850.1	843.7	836.4	826.9	812.4
313.15 K, 100 kPa	844.5	841.4	837.7	833.4	828.7	823.2	816.4	808.5	798.6	783.6
313.15 K, 5000 kPa	848.2	845.1	841.5	837.3	832.6	827.2	820.6	812.8	803	788.2
313.15 K, 10000 kPa	851.6	848.6	845.1	840.9	836.3	831	824.4	816.8	807.1	792.5
313.15 K, 15000 kPa	855	852.1	848.6	844.5	840	834.8	828.2	820.6	811.1	796.7
313.15 K, 20000 kPa	858.4	855.4	852	847.9	843.5	838.3	831.8	824.4	814.9	800.7
328.15 K, 100 kPa	831.7	828.5	–	820.4	815.5	809.9	802.8	–	784.8	769.8
328.15 K, 5000 kPa	835.6	–	828.8	824.5	819.7	814.2	–	799.4	789.5	774.8
328.15 K, 10000 kPa	–	836.4	832.8	828.6	823.9	–	811.6	803.9	794.2	779.7
328.15 K, 15000 kPa	843.1	840.1	836.5	832.3	–	822.3	815.6	808	798.4	–
328.15 K, 20000 kPa	846.7	843.6	840.2	–	831.5	826.1	819.5	812	–	788.4
328.18 K, 100 kPa	–	–	824.8	–	–	–	–	794.9	–	–
328.18 K, 5000 kPa	–	832.5	–	–	–	–	807.2	–	–	–
328.18 K, 10000 kPa	839.5	–	–	–	–	818.4	–	–	–	–
328.18 K, 15000 kPa	–	–	–	–	827.8	–	–	–	–	784.1
328.18 K, 20000 kPa	–	–	–	836	–	–	–	–	802.6	–
